The source of these data is publication PMC7537607 (Computational Biology and Chemistry, 2020).

In one series the test system is Para-influenza-3 virus. Nature of the series: organism not typed. Format: cell-based. To be noted: for EC50: Vero, read-out: EC50 Para-influenza-3 virus.
In a further series the test system is Reovirus-1. Put plainly: organism not typed. To be noted: for EC50: Vero, read-out: EC50 Reovirus-1. The class given is cell-based.
The next series deals with Sindbis virus. Put plainly: microbe, parasite or virus in culture. The class given is cell-based. As to conditions: Vero, read-out: EC50 Sindbis virus.
Another series relates to Coxsackie virus B4. Put plainly: microbe, parasite or virus in culture. As to conditions: Enterovirus B, B4, Vero, read-out: EC50 Coxsackie virus B4. The class given is cell-based.
The test system of another series is Punta Toro virus. Put plainly: microbe, parasite or virus in culture. The class given is cell-based. To be noted: Vero, read-out: EC50 Punta Toro virus.
The subject of another series is Yellow Fever virus. Put plainly: microbe, parasite or virus in culture. The class given is cell-based. To be noted: for EC50: Yellow fever virus, Vero, read-out: EC50 Yellow Fever virus.
A short description of another series: in vitro. To be noted: human; for viability: 48 h.
Another series has as its system HIV-1 (strain NL4.3). Nature of the series: microbe, parasite or virus in culture. Format: cell-based.
Setting [1] is: Cytotoxicity % Viability Exp - 1, 10 μg/mL.
Where [2] appears, read: Cytotoxicity % Viability Exp - 1, 100 μg/mL.

≈ marks a conversion by molar mass, not a printed value. Where “and” joins values, the source holds several entries; their conditions need not be identical. Equal values may be shown once. Read-outs that look alike come from different tables or passages of the source.

Regarding `OCCn1c(Cl)nc2ccccc21` [Compound 1a, 2-(2-Chloro-1H-benzimidazol-1-yl)ethan-1-ol], the 50% effective concentration (EC50) in the series on Para-influenza-3 virus, in the series with Reovirus-1, with Sindbis virus, with Coxsackie virus B4, in the series with Punta Toro virus and in the series with Yellow Fever virus was above 100 µg/mL in each case. For the same molecule, in the series with Yellow Fever virus, the “SI (Yellow Fever Virus), ratio of MCC to EC50” value (from here on “SI (Yellow Fever Virus), ratio”) turned out to be 1. The “Minimum cytotoxic concentration (MCC)” value with Vero cells (African green monkey) is above 100 µg/mL. Further, the values for the viability in the series “in vitro” (setting [1]) and in “in vitro” (setting [2]) were 90.1% and 53.6%, respectively.
As for `OCCCn1c(Cl)nc2ccccc21` [Compound 1b, 3-(2-Chloro-1H-benzimidazol-1-yl)propan-1-ol], the EC50 in the series on Para-influenza-3 virus, in the series on Reovirus-1, with Sindbis virus, in the series with Coxsackie virus B4, in the series on Punta Toro virus and with Yellow Fever virus was above 100 µg/mL each time. Besides, in the series with Yellow Fever virus, the “SI (Yellow Fever Virus), ratio” value turned out to be 1. The “Minimum cytotoxic concentration (MCC)” value in the series on Vero cells (African green monkey) was above 100 µg/mL. Further, the viability (commonly a read-out of living cells in per cent, often relative to untreated cells) is 92.6% in “in vitro” (setting [1]) and 58.6% in “in vitro” (setting [2]).
With `O=[N+]([O-])c1ccc2c(c1)nc(Cl)n2CCO` [Compound 2a, 2-(2-Chloro-5-nitro-1H-benzimidazol-1-yl)ethan-1-ol], the EC50 with Para-influenza-3 virus, with Reovirus-1, in the series with Sindbis virus, in the series on Coxsackie virus B4, in the series with Punta Toro virus and with Yellow Fever virus was above 100 µg/mL in each case. In the series with Yellow Fever virus, the “SI (Yellow Fever Virus), ratio” value worked out at 1. Also, the “Minimum cytotoxic concentration (MCC)” value in the series with Vero cells (African green monkey) was at least 100 µg/mL. The figures for the viability in the series “in vitro” (setting [1]) and in the series “in vitro” (setting [2]) were 104% and 40.4%, respectively.
`O=[N+]([O-])c1ccc2c(c1)nc(Cl)n2CCCO` [Compound 2b, 3-(2-Chloro-5-nitro-1H-benzimidazol-1-yl)propan-1-ol]: the 50% effective concentration (EC50) in the series with Para-influenza-3 virus, in the series on Reovirus-1, with Sindbis virus, in the series on Coxsackie virus B4 and with Punta Toro virus was above 100 µg/mL in each case. The viability in “in vitro” (setting [1]) turned out to be 91.2%; in “in vitro” (setting [2]), 69.1%.
As to `OCCn1c(Cl)nc2cc(Br)c(Br)cc21` [Compound 3a, 2-(5,6-Dibromo-2-chloro-1H-benzimidazol-1-yl)ethan-1-ol], the “SI (Selectivity index ratio CC50/IC50)” value with HIV-1 (strain NL4.3) was found to be 2.73. Further, the IC50 – broadly, the concentration needed to halve the response being measured – with HIV-1 (strain NL4.3) (Human immunodeficiency virus 1, TZM-bl, read-out: IC50 (HIV infection)) worked out at 1.37 µg/mL (≈ 3.87 µM). Moreover, the EC50 with Para-influenza-3 virus, in the series with Reovirus-1, with Sindbis virus, in the series with Coxsackie virus B4, in the series on Punta Toro virus and in the series with Yellow Fever virus was above 100 µg/mL in each case. Also, the “SI (Yellow Fever Virus), ratio” value in the series on Yellow Fever virus is listed as 1. For the same molecule, the “Minimum cytotoxic concentration (MCC)” value in the series on Vero cells (African green monkey) was 100 µg/mL. The CC50 in the series “in vitro” was 3.74 µg/mL and 10.5 µM. In addition, the viability came to 18.5% in “in vitro” (setting [1]); 0.96% in “in vitro” (setting [2]); 83.7% in “in vitro” (Cytotoxicity % Viability Exp - 2, 1 μg/mL); 49% in the series “in vitro” (Cytotoxicity % Viability Exp - 2, 5 μg/mL); 13.7% in “in vitro” (Cytotoxicity % Viability Exp - 2, 10 μg/mL).
As to `OCCCn1c(Cl)nc2cc(Br)c(Br)cc21` [Compound 3b, 3-(5,6-Dibromo-2-chloro-1H-benzimidazol-1-yl)propan-1-ol], the EC50 in the series on Para-influenza-3 virus, in the series on Reovirus-1, in the series on Sindbis virus, in the series on Coxsackie virus B4, in the series with Punta Toro virus and in the series on Yellow Fever virus was above 100 µg/mL each time. Moreover, the “SI (Yellow Fever Virus), ratio” value in the series on Yellow Fever virus was 1. Moreover, in the series with Vero cells (African green monkey), the “Minimum cytotoxic concentration (MCC)” value was above 100 µg/mL. In addition, the viability is 102% in “in vitro” (setting [1]) and 79.8% in the series “in vitro” (setting [2]).
Turning to `O=[N+]([O-])c1cc2nc(Cl)n(CCO)c2cc1[N+](=O)[O-]` [Compound 4a, 2-(2-Chloro-5,6-dinitro-1H-benzimidazol-1-yl)ethan-1-ol], the EC50 in the series with Para-influenza-3 virus, in the series on Reovirus-1, with Sindbis virus, in the series on Coxsackie virus B4, in the series on Punta Toro virus and in the series with Yellow Fever virus was above 100 µg/mL each time. Further, the “SI (Yellow Fever Virus), ratio” value in the series on Yellow Fever virus is 1. Further, in the series on Vero cells (African green monkey), the “Minimum cytotoxic concentration (MCC)” value is above 100 µg/mL. The viability was determined as 99.9% in the series “in vitro” (setting [1]) and 11.2% in the series “in vitro” (setting [2]).
On to `O=[N+]([O-])c1cc2nc(Cl)n(CCCO)c2cc1[N+](=O)[O-]` [Compound 4b, 3-(2-Chloro-5,6-dinitro-1H-benzimidazol-1-yl)propan-1-ol], for which the EC50 with Para-influenza-3 virus, with Reovirus-1, in the series with Sindbis virus, in the series with Coxsackie virus B4, with Punta Toro virus and in the series on Yellow Fever virus was above 100 µg/mL in each case. Moreover, in the series on Yellow Fever virus, the “SI (Yellow Fever Virus), ratio” value came out at 1. Further, the “Minimum cytotoxic concentration (MCC)” value in the series with Vero cells (African green monkey) is at least 100 µg/mL. For the same molecule, the viability in the series “in vitro” (setting [1]) stood at 92.1%; in the series “in vitro” (setting [2]), 90.9%.
As to `COc1c(C)c2c(c(O)c1C/C=C(\C)CCC(=O)O)C(=O)OC2` [Mycophenolic acid, reference compound], the EC50 (usually the midpoint of the concentration-response curve) is 0.6 µM in the series with Para-influenza-3 virus; 6 µM with Reovirus-1; 8.9 µM with Sindbis virus; above 100 µM in the series with Coxsackie virus B4; 14 µM in the series with Punta Toro virus; 0.8 µM in the series on Yellow Fever virus. In addition, the “SI (Yellow Fever Virus), ratio” value in the series with Yellow Fever virus is on record as 125.
`Cc1ccnc2c1NC(=O)c1cccnc1N2C1CC1` [Nevirapine, reference compound]: in the series on HIV-1 (strain NL4.3), the “SI (Selectivity index ratio CC50/IC50)” value is given as above 200.
On to `NC(=O)c1ncn([C@@H]2O[C@H](CO)[C@@H](O)[C@H]2O)n1` [Ribavirin, reference compound], for which the EC50 is 250 µM with Para-influenza-3 virus; above 250 µM in the series on Reovirus-1; above 250 µM with Sindbis virus; above 250 µM with Coxsackie virus B4; above 250 µM with Punta Toro virus; above 250 µM in the series on Yellow Fever virus. Besides, in the series on Yellow Fever virus, the “SI (Yellow Fever Virus), ratio” value is given as 1.
Regarding “dextran sulfate [DS - 10.000, reference compound]”, the “EC50 Para-influenza-3 virus” value in the series with Para-influenza-3 virus was above 100 µg/mL. For the same molecule, the “EC50 Reovirus-1” value in the series with Reovirus-1 is above 100 µg/mL. Besides, in the series with Yellow Fever virus, the “SI (Yellow Fever Virus), ratio” value turned out to be 125. Besides, in the series with Vero cells, the “Minimum cytotoxic concentration (MCC)” value is on record as >100 (0.01μM) μg/mL and the “Minimum cytotoxic concentration (MCC), molar value in parentheses” value was >100 (0.01μM).
